From ChEMBL document CHEMBL1201862, “PubChem BioAssay data set” (2004) come the findings set out here.

Among the test systems are HOP-92; OVCAR-3; SR; LOX IMVI; SN12C; UO-31; SF-268; NCI-H522; SNB-19; 786-0; Malme-3M; TK-10; SF-295; OVCAR-4; M14; SK-MEL-5; T47D; Hs-578T.
Holding throughout (assay): NCI anticancer screen, dose series, 48 h

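How tested: cells in 96-well plates exposed to compound for 48 hours at five concentrations. GI50 is the concentration that inhibits growth by half.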 The source made the active and inactive calls. Rule as the data show it: active = GI50 up to about 1.1 µM and inactive = higher.

`COc1ccc(/C(=N\NC(=S)NN)C(c2ccc(OC)cc2)C2C(=O)Oc3ccccc32)cc1` (stereo not drawn): the GI50 with HOP-92 is > 10 µM (inactive); with OVCAR-3 it was > 10 µM (inactive); in the experiment on SR it was 80.7 µM (inactive); in the experiment on LOX IMVI, > 10 µM (inactive); in the experiment with SN12C, > 10 µM (inactive); with UO-31, > 10 µM (inactive). In addition, the GI50 was > 10 µM (inactive) in the experiment on SF-268; 65.5 µM (inactive) in the experiment on NCI-H522; > 10 µM (inactive) in the experiment with SNB-19; > 10 µM (inactive) in the experiment on 786-0; > 10 µM (inactive) with Malme-3M; > 10 µM (inactive) in the experiment with TK-10. Also, the GI50 in the experiment with SF-295, in the experiment with OVCAR-4, in the experiment with M14 and in the experiment with SK-MEL-5 was > 10 µM (inactive) each time.
`Cc1c(C(=O)CSc2nc3ccccc3c(=O)n2-c2ccccc2)c(=O)n(-c2ccccc2)n1C`: the GI50 was 24.3 µM (inactive) in the experiment with HOP-92; 27.6 µM (inactive) in the experiment on OVCAR-3; 82.2 µM (inactive) in the experiment with SR; 42.1 µM (inactive) in the experiment on LOX IMVI; 97.7 µM (inactive) in the experiment on SN12C; 34.8 µM (inactive) in the experiment on UO-31. Further, the GI50 was > 100 µM (inactive) with SF-268; 27.2 µM (inactive) in the experiment on NCI-H522; 44.4 µM (inactive) with SNB-19; 19.9 µM (inactive) with 786-0; 60.5 µM (inactive) with Malme-3M; 41.9 µM (inactive) in the experiment on TK-10. For the same molecule, the GI50 is 28.8 µM (inactive) in the experiment with SF-295, > 100 µM (inactive) with OVCAR-4, 94.2 µM (inactive) with M14 and 31.6 µM (inactive) in the experiment on SK-MEL-5.
`Cc1cc(C)nc(/C(=N\NC(N)=O)C(=O)Nc2nc3ccc(C)cc3s2)c1`: the GI50 is > 100 µM (inactive) with HOP-92; > 100 µM (inactive) with OVCAR-3; 19.5 µM (inactive) in the experiment with SR; > 46.6 µM (inactive) in the experiment with LOX IMVI; > 100 µM (inactive) with SN12C; > 100 µM (inactive) with UO-31. Besides, the GI50 in the experiment on SF-268 is > 100 µM (inactive); in the experiment on NCI-H522 it was > 93.1 µM (inactive); with SNB-19, > 100 µM (inactive); in the experiment with 786-0, > 100 µM (inactive); in the experiment on Malme-3M, > 100 µM (inactive); in the experiment with TK-10, > 100 µM (inactive). The GI50 with SF-295, in the experiment with OVCAR-4, in the experiment on M14 and with SK-MEL-5 was > 100 µM (inactive) throughout.
For the molecule `CCC1=C(C)/C(=C/c2[nH]c(C(Br)Br)c(CC)c2C)N=C1C(Br)Br`, the GI50 was 74.1 µM (inactive) in the experiment with HOP-92; 23.2 µM (inactive) with OVCAR-3; 10.8 µM (inactive) in the experiment with SR; 21.2 µM (inactive) in the experiment on LOX IMVI; 31.2 µM (inactive) with SN12C; 20.7 µM (inactive) in the experiment on UO-31. In addition, the GI50 with SF-268 was 73.3 µM (inactive); in the experiment on NCI-H522, 13 µM (inactive); with SNB-19 it was 33.3 µM (inactive); in the experiment with 786-0, 63.2 µM (inactive); with Malme-3M it was 35 µM (inactive); in the experiment with TK-10 it was 41.2 µM (inactive). Also, the GI50 in the experiment with SF-295 was 26.1 µM (inactive); in the experiment on M14, 55.7 µM (inactive); with SK-MEL-5, 16.6 µM (inactive).
For `COC1=CC(=O)C2C(C1=O)[C@@H]1c3ccccc3C[C@H]21` (stereo partly drawn), the GI50 in the experiment with HOP-92, in the experiment on OVCAR-3, in the experiment on SR, in the experiment with LOX IMVI, with UO-31 and in the experiment with SF-268 was > 100 µM (inactive) throughout. Besides, the GI50 in the experiment with NCI-H522, with SNB-19, with 786-0, with Malme-3M, with TK-10 and in the experiment with SF-295 was > 100 µM (inactive) throughout. Besides, the GI50 with OVCAR-4, with M14 and with SK-MEL-5 was > 100 µM (inactive) each time.
`Nc1nc(CCC(=O)Nc2cccc(C(F)(F)F)c2)cc(-c2ccc3ccccc3c2)n1`: the GI50 in the experiment with HOP-92, in the experiment with OVCAR-3, with SR, with SN12C, with UO-31 and in the experiment with SF-268 was > 100 µM (inactive) in each case. For the same molecule, the GI50 with NCI-H522, with SNB-19, in the experiment on 786-0, in the experiment with Malme-3M, in the experiment with TK-10 and in the experiment on SF-295 was > 100 µM (inactive) in each case. Also, the GI50 in the experiment with OVCAR-4, with M14 and in the experiment on SK-MEL-5 was > 100 µM (inactive) in each case.
On to `CCc1nnc(S)n1/N=C/c1ccc(-c2ccc([N+](=O)[O-])cc2)o1`, for which the GI50 with HOP-92, in the experiment with OVCAR-3, with SR, with LOX IMVI, in the experiment with SN12C and in the experiment on UO-31 was > 100 µM (inactive) in each case. In addition, the GI50 in the experiment on SF-268, in the experiment with NCI-H522, with SNB-19, in the experiment on 786-0, with Malme-3M and in the experiment on TK-10 was > 100 µM (inactive) in each case. In addition, the GI50 in the experiment on SF-295, with OVCAR-4 and in the experiment with M14 was > 100 µM (inactive) throughout.
Turning to `CC/C=C/C(=O)CC(O)(C(F)(F)F)C(F)(F)F`, the GI50 in the experiment on HOP-92 was 32.4 µM (inactive); with SR it was > 100 µM (inactive); in the experiment on LOX IMVI, > 100 µM (inactive); in the experiment with SN12C, > 100 µM (inactive); in the experiment on UO-31, 54 µM (inactive); with SF-268, > 100 µM (inactive). For the same molecule, the GI50 with SNB-19 is > 100 µM (inactive); in the experiment on T47D, 82.2 µM (inactive); with 786-0 it was > 100 µM (inactive); with Malme-3M, > 100 µM (inactive); in the experiment on TK-10, > 100 µM (inactive); in the experiment with SF-295 it was > 100 µM (inactive). For the same molecule, the GI50 in the experiment on OVCAR-4 is > 100 µM (inactive); in the experiment with M14, > 100 µM (inactive); in the experiment on Hs-578T it was 19 µM (inactive); in the experiment on SK-MEL-5, > 100 µM (inactive).
Take `c1ccc2c(C3NCCc4nc[nH]c43)cccc2c1` (stereo not drawn): the GI50 with HOP-92, in the experiment with OVCAR-3, in the experiment on SR, in the experiment with LOX IMVI, in the experiment with SN12C and in the experiment with UO-31 was > 100 µM (inactive) throughout. The GI50 was > 100 µM (inactive) with SF-268; 98.4 µM (inactive) with NCI-H522; > 100 µM (inactive) in the experiment on 786-0; > 100 µM (inactive) with TK-10; > 100 µM (inactive) in the experiment on SF-295; > 100 µM (inactive) with OVCAR-4. For the same molecule, the GI50 in the experiment with M14 and in the experiment with SK-MEL-5 was > 100 µM (inactive) each time.
On to `CC(C)C(/N=C1\CC2CCC1(C(=O)Nc1ccccc1O)C2(C)C)c1ccccc1` (stereo not drawn), for which the GI50 with HOP-92 was 2.23 µM (inactive); in the experiment with OVCAR-3 it was > 10 µM (inactive); in the experiment on SR it was > 10 µM (inactive); with LOX IMVI, > 10 µM (inactive); in the experiment with SN12C, > 10 µM (inactive); with UO-31, > 10 µM (inactive). Besides, the GI50 was > 10 µM (inactive) in the experiment on SF-268; 6.58 µM (inactive) in the experiment on NCI-H522; > 10 µM (inactive) in the experiment on SNB-19; > 10 µM (inactive) with 786-0; > 10 µM (inactive) with Malme-3M; > 10 µM (inactive) in the experiment on TK-10. Further, the GI50 in the experiment on SF-295 is > 10 µM (inactive); in the experiment on OVCAR-4, > 10 µM (inactive); with M14 it was > 10 µM (inactive); with SK-MEL-5, 6.44 µM (inactive).
As to `C=CCCCCn1c2ccccc2c2c(C)c3c[n+](C)ccc3c(C)c21`, the GI50 in the experiment on HOP-92 is 0.237 µM (active); in the experiment on OVCAR-3 it was 0.288 µM (active); with SR, 0.284 µM (active); in the experiment on LOX IMVI, 0.284 µM (active); in the experiment on SN12C, 0.234 µM (active); in the experiment on UO-31, 5.28 µM (inactive). In addition, the GI50 is 0.366 µM (active) in the experiment on SF-268; 0.176 µM (active) in the experiment with NCI-H522; 0.412 µM (active) in the experiment on SNB-19; 0.752 µM (active) with 786-0; 0.275 µM (active) in the experiment on Malme-3M; 1.86 µM (inactive) in the experiment on TK-10. Besides, the GI50 with SF-295 was 0.208 µM (active); in the experiment on OVCAR-4, 0.284 µM (active); with M14 it was 0.979 µM (active); in the experiment on SK-MEL-5, 0.329 µM (active).
`COc1cc2cc(C(=O)N3CC(CCl)c4ccc(O)cc43)[nH]c2c(OC)c1OC` (stereo not drawn): the GI50 is 0.0292 µM (active) in the experiment with HOP-92; 0.0031 µM (active) in the experiment with OVCAR-3; 0.0034 µM (active) in the experiment on SR; 0.00184 µM (active) with LOX IMVI; 0.00441 µM (active) in the experiment with SN12C; 0.0198 µM (active) in the experiment on UO-31. Further, the GI50 was 0.00596 µM (active) in the experiment on SF-268; < 0.0001 µM (active) in the experiment on NCI-H522; 0.00406 µM (active) in the experiment with SNB-19; 0.0356 µM (active) in the experiment on T47D; 0.00012 µM (active) with 786-0; 0.00344 µM (active) with Malme-3M. The GI50 in the experiment with TK-10 was 0.0408 µM (active); in the experiment with SF-295, 0.000285 µM (active); in the experiment on OVCAR-4 it was 0.00491 µM (active); with M14, 0.00163 µM (active); with Hs-578T, 0.016 µM (active); in the experiment with SK-MEL-5, < 0.0001 µM (active).
